For assay [1], the target named is T1, Tyrosine-protein kinase BTK (Homo sapiens, UniProt Q06187). In words: Induction of BTK degradation in human MINO cells. It is filed as cell-based.
Assay [2] concerns the target T1, Tyrosine-protein kinase BTK. The experiment in a line: Induction of BTK degradation in human MINO cells assessed as maximum degradation relative to control. In kind it is cell-based.
For the next assay, the target named is Protein cereblon (Homo sapiens, UniProt Q96SW2). The experiment in a line: Induction of CRBN degradation in human MM1.S cells assessed as maximum degradation at 100 nM incubated for 24 hrs relative to control. In kind it is cell-based.
Assay [3] concerns the target Transcription intermediary factor 1-alpha (Homo sapiens, UniProt O15164). In words: Inhibition of His-tagged TRIM24 (unknown origin) expressed in Escherichia coli BL21(DE3)pLysS competent cells using biotinylated-H3K23ac peptide as substrate incubated for 30 mins by Alphascreen assay. (Alpha assays give light when donor and acceptor beads are brought close together.)

The subject of a further assay is HeLa. In words: Antiproliferative activity against human HeLa cells. In kind it is functional, cell-based.
In assay [4] the target is Bromodomain-containing protein 4 (Homo sapiens, UniProt O60885). The experiment in a line: Induction of BRD4 degradation in human HeLa cells assessed as maximum degradation at 10 nM after 12 hrs relative to control. In kind it is cell-based.
Assay [5] deals with Transcription intermediary factor 1-alpha (Homo sapiens) (UniProt O15164). In words: Induction of TRIM24 degradation in HEK293FT cells assessed as maximum degradation at 5 uM relative to control. It is filed as cell-based.
The subject of a further assay is MV4-11. In words: Antiproliferative activity against human MV4-11 cells.
The target in assay [6] is Androgen receptor (Homo sapiens) (UniProt P10275). The experiment in a line: Induction of AR degradation in human 22Rv1 cells assessed as maximum degradation at 10 uM after 8 hrs relative to control. In kind it is cell-based.
Assay [7] concerns the target T1, Tyrosine-protein kinase BTK. The experiment in a line: Induction of BTK degradation in human Ramos cells assessed as maximum degradation at 300 nM relative to control. In kind it is cell-based.
In another assay the test system is SU-DHL-1. The experiment in a line: Antiproliferative activity against human SU-DHL-1 cells. It is filed as functional, cell-based.
Assay [8] has as its target ALK tyrosine kinase receptor (Homo sapiens) (UniProt Q9UM73). In words: Induction of ALK degradation in human SU-DHL-1 cells assessed as maximum degradation at 300 nM after 12 hrs relative to control. In kind it is cell-based.
Assay [9] has the same target. In words: Induction of ALK degradation in human SU-DHL-1 cells assessed as maximum degradation at 3 uM after 12 hrs relative to control. It is filed as cell-based.
Assay [10] has the same target. In words: Induction of ALK degradation in human SU-DHL-1 cells assessed as maximum degradation at 100 nM pretreated with S-Ac-GSH followed by compound addition and measured after 12 hrs relative to control. In kind it is cell-based.
For assay [11] the target is unchanged. The experiment in a line: Induction of ALK degradation in human SU-DHL-1 cells assessed as maximum degradation at 30 nM after 12 hrs relative to control. It is filed as cell-based.
The next assay deals with A549. In words: Antiproliferative activity against human A549 cells. In kind it is functional, cell-based.
Another assay relates to HCT-116. The experiment in a line: Antiproliferative activity against human HCT-116 cells. It is filed as functional, cell-based.

In general, DC50 refers to the concentration giving 50% degradation. A low value points to a more potent degrader. A word on the Emax: it is the maximal effect, on the per cent scale that the assay sets. One may read the IC50 as the concentration at which inhibition is half-maximal. Lower therefore signals greater potency.

T1 sequence (Q06187 whole entry): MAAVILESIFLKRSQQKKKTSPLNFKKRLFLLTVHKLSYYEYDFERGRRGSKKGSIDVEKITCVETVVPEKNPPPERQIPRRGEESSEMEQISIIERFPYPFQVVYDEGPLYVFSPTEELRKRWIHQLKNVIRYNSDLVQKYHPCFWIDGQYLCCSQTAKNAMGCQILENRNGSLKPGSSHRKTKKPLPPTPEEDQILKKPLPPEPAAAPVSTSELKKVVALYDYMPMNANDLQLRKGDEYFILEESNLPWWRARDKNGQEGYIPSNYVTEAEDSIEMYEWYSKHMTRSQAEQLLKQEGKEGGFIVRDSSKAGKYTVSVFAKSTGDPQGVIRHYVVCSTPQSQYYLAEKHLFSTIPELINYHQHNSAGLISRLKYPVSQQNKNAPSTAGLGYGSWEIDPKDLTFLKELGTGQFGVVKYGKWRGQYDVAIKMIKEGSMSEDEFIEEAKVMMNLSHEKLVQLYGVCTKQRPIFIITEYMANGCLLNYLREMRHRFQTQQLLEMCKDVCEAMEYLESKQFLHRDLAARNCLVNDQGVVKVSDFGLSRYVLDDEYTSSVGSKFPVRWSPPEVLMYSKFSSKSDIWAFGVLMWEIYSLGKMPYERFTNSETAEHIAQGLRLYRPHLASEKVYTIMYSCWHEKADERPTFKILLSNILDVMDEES
Chain of ALK tyrosine kinase receptor (Homo sapiens) (Q9UM73 19-1620 limits assumed): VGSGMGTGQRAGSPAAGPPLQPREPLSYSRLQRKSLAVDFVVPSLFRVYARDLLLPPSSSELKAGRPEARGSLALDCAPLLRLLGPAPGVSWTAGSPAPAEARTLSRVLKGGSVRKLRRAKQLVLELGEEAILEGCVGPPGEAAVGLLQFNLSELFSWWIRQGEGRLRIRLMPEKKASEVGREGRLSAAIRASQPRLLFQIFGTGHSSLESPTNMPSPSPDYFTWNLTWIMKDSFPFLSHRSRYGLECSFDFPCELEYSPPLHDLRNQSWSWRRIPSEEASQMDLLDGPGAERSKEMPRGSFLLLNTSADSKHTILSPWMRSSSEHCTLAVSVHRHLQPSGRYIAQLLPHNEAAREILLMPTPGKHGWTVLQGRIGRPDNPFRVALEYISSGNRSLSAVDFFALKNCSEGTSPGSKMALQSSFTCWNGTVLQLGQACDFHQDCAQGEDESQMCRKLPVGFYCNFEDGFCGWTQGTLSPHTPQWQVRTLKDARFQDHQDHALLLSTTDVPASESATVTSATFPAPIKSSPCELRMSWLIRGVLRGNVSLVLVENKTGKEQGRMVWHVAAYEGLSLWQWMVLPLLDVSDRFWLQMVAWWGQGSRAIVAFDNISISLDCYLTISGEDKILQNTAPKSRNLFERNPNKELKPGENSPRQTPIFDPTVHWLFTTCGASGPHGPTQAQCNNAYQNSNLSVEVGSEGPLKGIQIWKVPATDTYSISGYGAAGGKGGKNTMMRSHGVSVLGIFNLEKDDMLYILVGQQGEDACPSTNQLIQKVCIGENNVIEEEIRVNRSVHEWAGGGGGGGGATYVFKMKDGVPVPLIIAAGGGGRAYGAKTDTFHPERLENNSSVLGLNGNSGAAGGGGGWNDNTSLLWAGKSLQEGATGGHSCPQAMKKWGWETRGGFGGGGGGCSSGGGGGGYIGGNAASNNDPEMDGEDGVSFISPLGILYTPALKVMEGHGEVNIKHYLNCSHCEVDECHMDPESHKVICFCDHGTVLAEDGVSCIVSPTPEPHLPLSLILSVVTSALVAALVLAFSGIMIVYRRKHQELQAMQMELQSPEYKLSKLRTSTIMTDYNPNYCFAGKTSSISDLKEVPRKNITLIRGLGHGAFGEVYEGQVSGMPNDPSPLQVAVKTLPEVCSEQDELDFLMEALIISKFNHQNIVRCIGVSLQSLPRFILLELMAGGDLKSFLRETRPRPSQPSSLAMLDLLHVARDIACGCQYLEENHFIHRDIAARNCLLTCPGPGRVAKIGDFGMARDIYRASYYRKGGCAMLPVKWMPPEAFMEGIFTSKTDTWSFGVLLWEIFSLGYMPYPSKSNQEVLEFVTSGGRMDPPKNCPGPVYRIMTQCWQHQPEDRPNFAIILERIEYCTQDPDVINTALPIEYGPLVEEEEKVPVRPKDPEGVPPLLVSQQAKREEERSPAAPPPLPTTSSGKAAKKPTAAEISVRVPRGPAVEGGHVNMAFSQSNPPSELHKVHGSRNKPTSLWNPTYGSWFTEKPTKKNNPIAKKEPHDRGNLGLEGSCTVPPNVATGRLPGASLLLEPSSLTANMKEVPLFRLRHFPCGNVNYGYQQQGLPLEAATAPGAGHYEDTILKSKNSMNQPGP
Chain of Transcription intermediary factor 1-alpha (O15164 whole entry): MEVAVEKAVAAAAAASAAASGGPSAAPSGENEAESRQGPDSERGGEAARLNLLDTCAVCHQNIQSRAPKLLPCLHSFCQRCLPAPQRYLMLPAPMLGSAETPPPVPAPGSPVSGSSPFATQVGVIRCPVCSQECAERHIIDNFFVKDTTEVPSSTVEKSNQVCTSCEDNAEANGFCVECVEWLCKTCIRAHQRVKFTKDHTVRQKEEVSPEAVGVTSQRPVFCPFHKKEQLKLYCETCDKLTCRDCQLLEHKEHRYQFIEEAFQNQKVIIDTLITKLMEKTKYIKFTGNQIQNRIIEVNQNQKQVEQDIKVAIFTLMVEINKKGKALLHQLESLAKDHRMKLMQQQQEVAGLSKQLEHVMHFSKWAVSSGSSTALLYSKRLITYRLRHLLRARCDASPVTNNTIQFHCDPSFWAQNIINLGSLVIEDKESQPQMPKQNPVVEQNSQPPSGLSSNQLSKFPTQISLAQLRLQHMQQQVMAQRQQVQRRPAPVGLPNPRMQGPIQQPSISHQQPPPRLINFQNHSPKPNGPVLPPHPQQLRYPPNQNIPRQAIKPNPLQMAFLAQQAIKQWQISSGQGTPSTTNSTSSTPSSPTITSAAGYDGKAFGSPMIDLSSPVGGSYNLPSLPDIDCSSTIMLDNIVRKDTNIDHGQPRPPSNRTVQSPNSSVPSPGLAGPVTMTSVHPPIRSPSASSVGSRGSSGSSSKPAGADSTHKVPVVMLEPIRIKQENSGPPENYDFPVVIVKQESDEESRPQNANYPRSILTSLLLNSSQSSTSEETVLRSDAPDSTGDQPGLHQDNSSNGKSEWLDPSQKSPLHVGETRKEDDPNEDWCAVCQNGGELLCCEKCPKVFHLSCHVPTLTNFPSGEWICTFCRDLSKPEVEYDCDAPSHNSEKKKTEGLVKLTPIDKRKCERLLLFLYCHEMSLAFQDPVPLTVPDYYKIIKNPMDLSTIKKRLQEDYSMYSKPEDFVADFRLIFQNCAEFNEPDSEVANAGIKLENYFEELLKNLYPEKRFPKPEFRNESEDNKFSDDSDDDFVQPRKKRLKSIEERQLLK
Chain of Protein cereblon (Q96SW2 whole entry): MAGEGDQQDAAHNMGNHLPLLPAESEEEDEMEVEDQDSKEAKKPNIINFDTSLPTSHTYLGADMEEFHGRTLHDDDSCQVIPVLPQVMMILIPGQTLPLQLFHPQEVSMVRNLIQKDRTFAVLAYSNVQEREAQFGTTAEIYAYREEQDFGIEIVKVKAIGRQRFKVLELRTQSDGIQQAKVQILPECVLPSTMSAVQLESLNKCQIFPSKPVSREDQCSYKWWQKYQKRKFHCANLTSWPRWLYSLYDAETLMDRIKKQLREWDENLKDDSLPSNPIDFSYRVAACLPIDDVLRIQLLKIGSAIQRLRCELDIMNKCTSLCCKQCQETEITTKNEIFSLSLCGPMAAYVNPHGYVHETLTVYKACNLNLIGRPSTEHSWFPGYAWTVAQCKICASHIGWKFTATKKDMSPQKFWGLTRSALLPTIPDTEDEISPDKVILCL
Chain of Transcription intermediary factor 1-alpha (Homo sapiens) (O15164 whole entry): as the sequence (O15164 whole entry) above
Chain of Androgen receptor (Homo sapiens) (P10275 whole entry): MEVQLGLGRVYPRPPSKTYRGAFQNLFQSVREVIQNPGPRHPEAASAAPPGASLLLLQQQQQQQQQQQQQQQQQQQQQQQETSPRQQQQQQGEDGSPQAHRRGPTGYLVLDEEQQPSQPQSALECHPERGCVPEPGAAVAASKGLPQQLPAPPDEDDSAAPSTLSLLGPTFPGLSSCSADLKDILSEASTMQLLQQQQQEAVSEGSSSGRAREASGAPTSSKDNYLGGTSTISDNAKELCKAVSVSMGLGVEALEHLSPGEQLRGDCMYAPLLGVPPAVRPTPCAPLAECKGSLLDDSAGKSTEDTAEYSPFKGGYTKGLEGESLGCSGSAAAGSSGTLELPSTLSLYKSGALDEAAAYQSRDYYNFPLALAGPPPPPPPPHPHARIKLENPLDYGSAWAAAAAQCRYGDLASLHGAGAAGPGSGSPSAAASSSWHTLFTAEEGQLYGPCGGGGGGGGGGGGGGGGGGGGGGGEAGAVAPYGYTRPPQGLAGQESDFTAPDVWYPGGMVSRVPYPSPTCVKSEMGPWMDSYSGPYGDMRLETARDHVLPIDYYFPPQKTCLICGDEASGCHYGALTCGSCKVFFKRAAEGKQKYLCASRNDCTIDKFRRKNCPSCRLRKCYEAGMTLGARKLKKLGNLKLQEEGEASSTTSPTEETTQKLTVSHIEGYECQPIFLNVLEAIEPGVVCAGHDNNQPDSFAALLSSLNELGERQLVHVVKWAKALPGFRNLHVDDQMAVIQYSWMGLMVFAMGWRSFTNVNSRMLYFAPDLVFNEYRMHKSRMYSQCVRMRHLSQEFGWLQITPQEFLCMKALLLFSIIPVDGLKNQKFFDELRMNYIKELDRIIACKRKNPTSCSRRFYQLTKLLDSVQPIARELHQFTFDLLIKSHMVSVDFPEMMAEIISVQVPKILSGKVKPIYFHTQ

As to `Nc1ncnc2c1c(-c1ccc(Oc3ccccc3)cc1)nn2[C@@H]1CCCN(C(=O)CCCCCCOCCOCCOCCOCCOc2cccc3c2C(=O)N(C2CCC(=O)NC2=O)C3=O)C1` (some centres undefined), in assay [1], it took 0.0022 µM to reach half-maximal degradation (DC50). In [2], the Emax is 97%.

With `Cc1ncsc1-c1ccc(CNC(=O)[C@@H]2C[C@@H](O)CN2C(=O)[C@@H](NC(=O)CCCCOCCCCCOCCCCCCNc2cccc3c2C(=O)N(C2CCC(=O)NC2=O)C3=O)C(C)(C)C)cc1` (some centres undefined), the Emax at Protein cereblon is > 90%.

Turning to `CCCOc1cccc(Oc2cc3c(cc2NS(=O)(=O)c2ccc(OC)c(OC)c2)n(C)c(=O)n3C)c1`, in assay [3], the half-maximal inhibitory concentration (IC50) stood at 0.218 µM.

`Cc1ncsc1-c1ccc([C@H](C)NC(=O)[C@@H]2C[C@@H](O)CN2C(=O)[C@@H](NC(=O)COCCCOCCNC(=O)C[C@@H]2N=C(c3ccc(Cl)cc3)c3c(sc(C)c3C)-n3c(C)nnc32)C(C)(C)C)cc1` gave an IC50 in the assay with HeLa of 0.183 µM. Also, the Emax in assay [4] worked out at 100%.

`CCCOc1cccc(Oc2cc3c(cc2NS(=O)(=O)c2cccc(C(=O)NCCOCCOCCOCC(=O)N[C@@H](C(=O)N4C[C@@H](O)C[C@@H]4C(=O)NCc4ccc(-c5scnc5C)cc4)C(C)(C)C)c2)n(C)c(=O)n3C)c1` showed an IC50 in assay [3] of 0.338 µM. In [5], the Emax stood at 72%.

For the compound `Cc1sc2c(c1C)C(c1ccc(Cl)cc1)=N[C@@H](CC(=O)NCCOCCOCCOCC(C)(COCCOCCOCCNC(=O)C[C@@H]1N=C(c3ccc(Cl)cc3)c3c(sc(C)c3C)-n3c(C)nnc31)COC(=O)NCCNc1cccc3c1C(=O)N(C1CCC(=O)NC1=O)C3=O)c1nnc(C)n1-2` (some centres undefined), 0.0946 µM corresponded to half-maximal inhibition in the assay with MV4-11 (IC50). In other words, the double-digit nanomolar range.

For `CC(C)(/C=C(\C#N)C(=O)N1CCC[C@@H](n2nc(-c3ccc(Oc4ccccc4)cc3)c3c(N)ncnc32)C1)CCCOCCOCCOCCOCCOc1cccc2c1C(=O)N(C1CCC(=O)NC1=O)C2=O` (some centres undefined), it took 0.006 µM to reach half-maximal degradation in assay [1] (DC50). For the same compound, the Emax in assay [2] is 85%.

In assay [1], `Nc1ncnc2c1c(-c1ccc(Oc3ccccc3)cc1)nn2[C@@H]1CCCN(C(=O)/C=C/CCCCOCCOCCOCCOCCOc2cccc3c2C(=O)N(C2CCC(=O)NC2=O)C3=O)C1` (some centres undefined) showed a DC50 of 0.0019 µM. Besides, the Emax in assay [2] was determined as 88%.

As for `CC1(C)[C@H](NC(=O)c2ccc(OCC(=O)NCCCOCCOCCOCCCN(C(=O)CCl)C(C(=O)NCc3ccccc3)c3ccc(Cl)c(Cl)c3)cc2)C(C)(C)[C@H]1Oc1ccc(C#N)c(Cl)c1` (some centres undefined), in assay [6], the Emax was determined as 90%.

Consider `CN[C@@H](C)C(=O)N[C@H](C(=O)N1C[C@@H](NC(=O)COCCOCCOCCOCCN2CCN(C/C=C/C(=O)N3CCC[C@@H](n4nc(-c5ccc(Oc6ccccc6)cc5)c5c(N)ncnc54)C3)CC2)C[C@H]1C(=O)N[C@H]1CCCc2ccccc21)C1CCCCC1`, for which the Emax in [7] amounted to 100%.

With `Cc1cc(Nc2ncc(Cl)c(Nc3ccccc3S(=O)(=O)C(C)C)n2)c(OC(C)C)cc1C1CCN(CCCCC(=O)N[C@H](C(=O)N2C[C@H](OC(=O)CCCCn3cc(CNC(=O)CC[C@H](NC(=O)c4ccc(NCc5cnc6nc(N)[nH]c(=O)c6n5)cc4)C(=O)O)nn3)C[C@H]2C(=O)N[C@@H](C)c2ccc(-c3scnc3C)cc2)C(C)(C)C)CC1`, half-maximal inhibition in the assay on SU-DHL-1 (IC50) was put at 0.2 µM. Further, the Emax in assay [8] was 100%.

In turn, `Cc1cc(Nc2ncc(Cl)c(Nc3ccccc3S(=O)(=O)C(C)C)n2)c(OC(C)C)cc1C1CCN(CC(=O)NCCNc2cccc3c2C(=O)N(C2CCC(=O)N(C(=O)OCCSSCCn4cc(CNC(=O)CC[C@H](NC(=O)c5ccc(NCc6cnc7nc(N)[nH]c(=O)c7n6)cc5)C(=O)O)nn4)C2=O)C3=O)CC1` (some centres undefined) yielded a concentration for half-maximal inhibition (IC50) with SU-DHL-1 of 0.465 µM. Moreover, the Emax in assay [9] and in assay [10] was 100% throughout.

With `Cc1cc(Nc2ncc(Cl)c(Nc3ccccc3S(=O)(=O)C(C)C)n2)c(OC(C)C)cc1C1CCN(CC(=O)NCCNc2cccc3c2C(=O)N(C2CCC(=O)NC2=O)C3=O)CC1` (centres undefined), the Emax in assay [11] came out at 90%. Also, in the assay on SU-DHL-1, the IC50 is 0.016 µM.

Turning to `COc1ccc(C2=N[C@@H](c3ccc(Cl)cc3)[C@@H](c3ccc(Cl)cc3)N2C(=O)N2CCNC(=O)C2)c(OC(C)C)c1` [NUTLIN-3], the IC50 was 7.9 µM with A549 and 5 µM in the assay with HCT-116.

For the origin of these results see ChEMBL document CHEMBL5223100, “Homobivalent, Trivalent, and Covalent PROTACs: Emerging Strategies for Protein Degradation” (J Med Chem, 2022).
